This is an account of results in US9024005B2, “Nucleic acid complexes” (priority 2010, dated 2015).

Read-outs that look alike come from different tables or passages of the source. {Fluorescein} = fluorescein label Where only a bound is given, the exact number is not on record here.

Data set [1] can be described thus: Vesicle size distribution of hairpin TFD complexes (Malvern Nanosizer). The format is physicochemical. The following applies: TFD complexes containing hairpin TFD SA SIG and the delivery compound. As to the method: To prepare delivery complexes, 10 mg of compound was suspend in 12.5 ml of 5 mM Hepes pH7.5 (final concentration 0.8 mg/ml) and dissolved by sonication (30×30 s on, 30 s off, on ice at 10μ). Absorbance of the resulting solution was measured at 327 nm to establish an accurate concentration. 12.5 μl delivery compound was mixed with 40 μl 10 μM TFD and 447.5 μl 5 mM Hepes (pH7.5) and sonicated in an ice bath using an MSE 150 Soniprep attached with a microprobe. Thirty cycles of sonication were performed with 30 s on (with 50% power, approximately 10μ) and 30 s off.
The size distributions of the formed vesicles were measured using a Malvern Nanosizer using standard methodology and are set out in Table 3 below: […]

The test system of another data set is EMRSA-15. In words: Growth assay, TFDs delivered by antibacterial peptides. The format is cell-based, S. aureus. The following applies: for bacterial growth of EMRSA-15, agent alone: TFD alone or Gramicidin alone; for bacterial growth of EMRSA-15, agent alone / bacterial growth of EMRSA-15, TFD with Gramicidin: LB media; for bacterial growth of EMRSA-15, TFD with Gramicidin: 1 μg DB-TFD with 150 ng/ul of Gramicidin; for growth of EMRSA-15, TFD mixed with Buforin II: 96 well plate in vitro assay. As for the experimental part:
The following antibacterial peptides were assayed for their ability to deliver TFDs to bacterial cells: Gramicidin, Polymyxin nonapeptide (both purchased from Sigma Aldrich) and Buforin II (Park et al. (2000) Proc. Natl. Acad. Sci. USA 97: 8245-8250). Typically 1 μg of the Sig DB-TFDs and SigScr DB-TFD as described in Example 1 were mixed with between 0.2 and 5 μg of Gramicidin in a total volume of 5 μl 50 mM NaCl. Of this, 1 μl was added to 200 μl of LB broth inoculated with a 1/100 dilution of a glycerol stock of EMRSA-15 at an original density of 0.3 OD (Absorbance at 600 nm) and aliquoted into a well of a 96 well plate. Experiments were performed in triplicate. The plates were incubated at 37° C. with shaking and absorbance readings (at […]) were taken using a plate reader.

A further data set deals with MRSA strain, EMRSA-15. In words: Fluorescence microscopy of uptake of labelled oligonucleotide. The conditions noted are these: delivered in Buforin II-derivatised complexes formed with Compound 7; overnight growth. The format is cell-based, S. aureus. As to the method:
Derivatised TFD complexes were formed as described, with the exception that the TFD was substituted with a fluorescently labelled oligonucleotide, Tef, that contained a fluorescein dye at the 5′ end. The sequence of the oligonucleotide was:
The derivatised complexes are added to 200 μl of LB broth inoculated with the MRSA strain, EMRSA-15, and grown overnight with shaking at 37° C. The following morning, cells were harvested by centrifugation and washed four times in an equal volume of PBS. A drop of the bacterial suspension was placed on a microscope slide and air dried. Cells were then heat-fixed by passing the slide through a Bunsen flame. The slide was then flooded with a solution of Loeffler's methylene blue (5 mg/ml methylene blue in 69:30:1 (v/v) solution of water:methanol: 1% (w/v) KOH) and allowed to stand for 1 min, after which the excess solution was washed off with water and the cells visualised using a Cairn CCD Fluorescence Microscope.

For data set [2] the following is noted: Weissig et al. 2001 S. T. P. Pharma Sci. 11: 91-96, Table I; cited from earlier work.
Another data set concerns TFD. In words: SYBR Green-DNA binding assay: binding of bolasomes to TFDs. The conditions noted are these: at the concentrations used for sC7 bolasomes; 2 μg TFD/ml. As for the experimental part:
To determine the proportion of TFDs being bound by the vesicles, a SYBR-green binding assay was used. TFD complexes were formed as described above in Hepes buffer with the adaptation that the buffer contained 5 μl of a 1 in 10 dilution of SYBR Green I dye (Invitrogen, 10,000× stock prepared in DMSO). Fluorescence was measured (λEX 497 nm, λEM 520 nm) to determine how much bolasome needed to be added to quench the binding of SYBR Green to the TFDs.
SYBR-Green I dye binds specifically to double-stranded DNA and, as it does, gives a strong fluorescent signal. By measuring the change in signal in the presence of different concentrations and types of bolasome, it was possible to calculate the minimum amount of bolasome needed to quench the SYBR-Green binding, due to the dye being excluded by the bolasomes. This was achieved by extrapolation from the linear portion of a titration curve that plotted amount of bolasome added to fluorescent signal. […] At these concentrations no quenching was seen by the monomeric C7.

For data set [3] the following is noted: Weissig et al. (2006) J. Liposome Res. 16: 249-264, cited from earlier work.
The test system of data set [4] is Staphylococcus aureus EMRSA 16. In words: Tissue burden study, mouse sepsis model. The format is in vivo. The following applies: Dwass-Steel-Chritchlow-Fligner, all pairwise comparisons. As to the method:
Animals were treated in groups of since mice per treatment group, therefore forty eight animals were used in total for the study. Two 10 ml cultures of Staphylococcus aureus EMRSA 16 were prepared and placed on orbital shaker (220 rpm) overnight at 37° C. The following day, the Staphylococcus aureus EMRSA 16 cultures were removed from shaker, pelleted and washed twice before being resuspended in saline to an OD of 0.132 (1.5×10^8 cfu/ml). This stock solution of Staphylococcus aureus EMRSA 16 was then further diluted 1:1.5 in saline (1×10^8 cfu/ml) i.e. 2.0×10^7 bacteria per mouse.
All forty eight mice were then infected with 0.2 ml of the 1.0×10^8/ml suspension by intravenous injection into mouse tail vein. The number of Staphylococcus aureus EMRSA 16 bacteria per ml in the remainder of the suspensions after inoculation was also counted to confirm infection load.
Mice were treated 1, 9 and 17 hours post infection with either compound or vehicle, though vancomycin was only administered after 1 h.
After 25 hours post infection, all animals were weighed and then euthanised. […] Organ homogenates were quantitatively cultured onto CLED agar and incubated at 37° C. for up to 3 days and colonies counted. The data from the culture burdens was analysed by the Kruskal-Wallis test using Stats Direct. […]

For `Cc1cc(N)c2ccccc2[n+]1CCCCCCCCCC[n+]1c(C)cc(N)c2ccccc21` [Dequalinium, reference compound], the “Vesicle size distribution (nm)” value in data set [1] is listed as 75-820 nm.

With `Nc1c2c([n+](CCCCCCCCCCCC[n+]3c4c(c(N)c5ccccc53)CCCC4)c3ccccc13)CCCC2.[Cl-].[Cl-]` [Compound 7_12, 10,10′-(dodecane-1,12-diyl)bis(9-amino-1,2,3,4-tetrahydroacridinium)dichloride], the “Vesicle size distribution (nm)” value in data set [1] was 117 +/− 32 nm.

Turning to Gramicidin [reference compound], in the data set with EMRSA-15, the “bacterial growth of EMRSA-15, agent alone” value is “grew as well as the untreated control”.

Take “Tef: fluorescein 5′-labelled oligonucleotide, SEQ ID NO: 52, substitute for the TFD (AGGCGGCCGCGAATTCACTAGTGA; DNA, 5' {Fluorescein}, backbone not given here; listed as Staphylococcus aureus)”: in the data set on MRSA strain, EMRSA-15, the “uptake of labelled oligonucleotide into bacteria (fluorescence view)” value is “had been internalised”.

On to `Nc1c2c([n+](CCCCCCCCCC[n+]3c4c(c(N)c5ccccc53)CCCC4)c3ccccc13)CCCC2.[Cl-].[Cl-]` [Compound 7, 10,10′-(decane-1,10-diyl)bis(9-amino-1,2,3,4-tetrahydroacridinium)dichloride], for which the “published size distribution of the vesicles” value in data set [2] is 169 nm. Besides, the “quenching of SYBR-Green binding” value in the data set on TFD is given as “no quenching”. In addition, in data set [1], the “Vesicle size distribution (nm)” value was 139 +/− 35 nm. For the same molecule, the “in vitro toxicity compared to dequalinium” value is “less in vitro toxicity than dequalinium” in data set [3] and “lower toxicity in vitro compared to dequalinium” in data set [3] (listed as Compound 7 analogue).

Turning to “Sig TFD: transcription factor decoy with S. aureus Sig binding site (SEQ ID NO:9), given alone at 1 nM (TTATTATATACCCATCGAAATAATTTCTAATCTTC; DNA, backbone not given here; further chemistry not fully specified; listed as Staphylococcus aureus)”, in data set [4], the “Kruskal-Wallis pairwise comparison of kidney burden vs Vancomycin” value is under 0.0001 and the “Kruskal-Wallis pairwise comparison of kidney burden vs Vehicle” value stood at 0.9203.

B1: Sig DB-TFD: dumbbell TFD with recognition site for S. aureus alternative sigma protein, SEQ ID NO: 30 and 31 (nucleic acid)
chain 1: CTTGGTTTTTCCAAGGAAGATTAGAAATTATTTCGATGGGTATATAATA
chain 2: CCGTCTTTTTGACGGTATTATATACCCATCGAAATAATTTCTAATCTTC
modifications: DNA, backbone not given here; phosphorylated oligos forming dumbbell with hairpin loops, further chemistry not fully specified
In the case of B1, in the data set with EMRSA-15, the “bacterial growth of EMRSA-15, TFD with Gramicidin” value was “no bacterial growth”; the “growth of EMRSA-15, TFD mixed with Buforin II” value is listed as “prevented growth”; the “bacterial growth of EMRSA-15, agent alone” value is on record as “grew as well as the untreated control”.

B2: scrambled version of the DB-TFD: dumbbell TFD with scrambled Sig binding site, SEQ ID NO: 43 and 44 (nucleic acid)
chain 1: CTTGGTTTTTCCAAGTAGAAAGAAGATTTAGGGCGATTTTATAATATAT
chain 2: CCGTCTTTTTGACGGATATATTATAAAATCGCCCTAAATCTTCTTTCTA
modifications: DNA, backbone not given here; dumbbell decoy with hairpin loops
Regarding B2, in the data set with EMRSA-15, the “bacterial growth of EMRSA-15, TFD with Gramicidin” value is “grew as well as the untreated control” and the “growth of EMRSA-15, TFD mixed with Buforin II” value is “no discernable effect on growth”.
